BindingDB's records for doi:10.1016/j.bmcl.2004.04.096 (Cv Therapeutics, 2004)
Blank lines part the entries; values can stand above or below the molecule they belong to.

Assays:
Adenosine receptor A1 [1] = molecular target: T1, Adenosine receptor A1 (Cavia porcellus, UniProt P47745); assay: Binding affinity against adenosine A1 receptor using [3H]CPX in guinea pig DDT membrane; 614+/-78
T1 sequence (P47745 whole entry): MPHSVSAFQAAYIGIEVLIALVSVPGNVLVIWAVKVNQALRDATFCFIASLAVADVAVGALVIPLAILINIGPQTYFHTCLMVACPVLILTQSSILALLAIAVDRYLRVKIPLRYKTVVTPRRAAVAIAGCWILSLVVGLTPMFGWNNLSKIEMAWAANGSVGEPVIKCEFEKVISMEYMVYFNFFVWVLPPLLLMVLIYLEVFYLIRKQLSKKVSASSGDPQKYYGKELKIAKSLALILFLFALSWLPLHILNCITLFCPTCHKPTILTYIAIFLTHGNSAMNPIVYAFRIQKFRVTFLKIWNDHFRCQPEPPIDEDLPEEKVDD

Adenosine receptor A1 [2] = molecular target: T1, Adenosine receptor A1; assay: Binding affinity against adenosine A1 receptor using [3H]CPX in guinea pig DDT membrane
Adenosine receptor A1 [3] = molecular target: T1, Adenosine receptor A1; assay: Binding affinity against adenosine A1 receptor using [3H]CPX in guinea pig DDT membrane; 117+/-46
Adenosine receptor A1 [4] = molecular target: T1, Adenosine receptor A1; assay: Binding affinity against adenosine A1 receptor using [3H]CPX in guinea pig DDT membrane; 1143+/-426
Adenosine receptor A1 [5] = molecular target: T1, Adenosine receptor A1; assay: Binding affinity against adenosine A1 receptor using [3H]CPX in guinea pig DDT membrane; 1773+/-209
Adenosine receptor A1 [6] = molecular target: T1, Adenosine receptor A1; assay: Binding affinity against adenosine A1 receptor using [3H]CPX in guinea pig DDT membrane; 506+/-111
Adenosine receptor A1 [7] = molecular target: T1, Adenosine receptor A1; assay: Binding affinity against adenosine A1 receptor using [3H]CPX in guinea pig DDT membrane; 913+/-517
Adenosine receptor A1 [8] = molecular target: T1, Adenosine receptor A1; assay: Binding affinity against adenosine A1 receptor using [3H]CPX in guinea pig DDT membrane; 343+/-137
Adenosine receptor A1 [9] = molecular target: T1, Adenosine receptor A1; assay: Binding affinity against adenosine A1 receptor using [3H]CPX in guinea pig DDT membrane; 473+/-329
Adenosine receptor A1 [10] = molecular target: T1, Adenosine receptor A1; assay: Binding affinity against adenosine A1 receptor using [3H]CPX in guinea pig DDT membrane; 1945+/-1316
Adenosine receptor A1 [11] = molecular target: T1, Adenosine receptor A1; assay: Binding affinity against adenosine A1 receptor using [3H]CPX in guinea pig DDT membrane; 400+/-38
Adenosine receptor A1 [12] = molecular target: T1, Adenosine receptor A1; assay: Binding affinity against adenosine A1 receptor using [3H]CPX in guinea pig DDT membrane; 158+/-21
Adenosine receptor A1 [13] = molecular target: T1, Adenosine receptor A1; assay: Binding affinity against adenosine A1 receptor using [3H]CPX in guinea pig DDT membrane; 6250+/-1767
Adenosine receptor A1 [14] = molecular target: T1, Adenosine receptor A1; assay: Binding affinity against adenosine A1 receptor using [3H]CPX in guinea pig DDT membrane; 604+/-241
Adenosine receptor A1 [15] = molecular target: T1, Adenosine receptor A1; assay: Binding affinity against adenosine A1 receptor using [3H]CPX in guinea pig DDT membrane; 338+/-98
Adenosine receptor A1 [16] = molecular target: T1, Adenosine receptor A1; assay: Binding affinity against adenosine A1 receptor using [3H]CPX in guinea pig DDT membrane; 1571+/-245
Adenosine receptor A1 [17] = molecular target: T1, Adenosine receptor A1; assay: Binding affinity against adenosine A1 receptor using [3H]CPX in guinea pig DDT membrane; 503+/-262
Adenosine receptor A1 [18] = molecular target: T1, Adenosine receptor A1; assay: Binding affinity against adenosine A1 receptor using [3H]CPX in guinea pig DDT membrane; 1666+/-556
Adenosine receptor A1 [19] = molecular target: T1, Adenosine receptor A1; assay: Binding affinity against adenosine A1 receptor using [3H]CPX in guinea pig DDT membrane; 287+/-125
Adenosine receptor A1 [20] = molecular target: T1, Adenosine receptor A1; assay: Binding affinity against adenosine A1 receptor using [3H]CPX in guinea pig DDT membrane; 894+/-659
Adenosine receptor A1 [21] = molecular target: T1, Adenosine receptor A1; assay: Binding affinity against adenosine A1 receptor using [3H]CPX in guinea pig DDT membrane; 166+/-75
Adenosine receptor A1 [22] = molecular target: T1, Adenosine receptor A1; assay: Binding affinity against adenosine A1 receptor using [3H]-CPX in guinea pig DDT membrane; 4191+/-922
Adenosine receptor A1 [23] = molecular target: T1, Adenosine receptor A1; assay: Binding affinity against adenosine A1 receptor using [3H]CPX in guinea pig DDT membrane; 5855+/-1208
Adenosine receptor A1 [24] = molecular target: T1, Adenosine receptor A1; assay: Binding affinity against adenosine A1 receptor using [3H]CPX in guinea pig DDT membrane; 5497+/-180
Adenosine receptor A1 [25] = molecular target: T1, Adenosine receptor A1; assay: Binding affinity against adenosine A1 receptor using [3H]CPX in guinea pig DDT membrane; 7292+/-3241
Adenosine receptor A1 [26] = molecular target: T1, Adenosine receptor A1; assay: Binding affinity against adenosine A1 receptor using [3H]CPX in guinea pig DDT membrane; 354+/-113

Ki (Adenosine receptor A1 [1]): 614 nM
SMILES: O[C@@H]1[C@@H](CSc2c(Cl)cccc2Cl)OC(n2cnc3c(NC4CCOC4)ncnc32)[C@@H]1O (stereo partly specified)

Ki (Adenosine receptor A1 [2]): 192 nM
SMILES: Cc1cc(COC[C@H]2OC(n3cnc4c(NC5CCOC5)ncnc43)[C@H](O)[C@@H]2O)no1 (stereo partly specified)

Ki (Adenosine receptor A1 [3]): 117 nM
SMILES: O[C@@H]1[C@@H](COc2ccccc2F)OC(n2cnc3c(NC4CCOC4)ncnc32)[C@@H]1O (stereo partly specified)

Ki (Adenosine receptor A1 [4]): 1140 nM
SMILES: Cc1ccccc1SC[C@H]1OC(n2cnc3c(NC4CCOC4)ncnc32)[C@H](O)[C@@H]1O (stereo partly specified)

Ki (Adenosine receptor A1 [5]): 1770 nM
SMILES: O[C@@H]1[C@@H](CSc2nc3ccccc3s2)OC(n2cnc3c(NC4CCCC4)ncnc32)[C@@H]1O (stereo partly specified)

Ki (Adenosine receptor A1 [6]): 506 nM
SMILES: O[C@@H]1[C@H](O)[C@@H](CSc2ccccc2F)O[C@H]1n1cnc2c(NC3CCOC3)ncnc21 (stereo partly drawn) [N6-Tetrahydrofuranyl-9H-[5-deoxy-5-(2-fluorophenylthio)-beta-D-ribofuranosyl]adenine]

Ki (Adenosine receptor A1 [7]): 913 nM
SMILES: O[C@@H]1[C@@H](CSc2ncccn2)OC(n2cnc3c(NC4CCOC4)ncnc32)[C@@H]1O (stereo partly specified)

Ki (Adenosine receptor A1 [2]): 4390 nM
SMILES: O[C@@H]1[C@@H](COc2ccccc2F)OC(n2cnc3c(NC4CCCC4)ncnc32)[C@@H]1O (stereo partly specified)

Ki (Adenosine receptor A1 [8]): 343 nM
SMILES: O[C@@H]1[C@@H](COc2ccc(F)cc2)OC(n2cnc3c(NC4CCOC4)ncnc32)[C@@H]1O (stereo partly specified)

Ki (Adenosine receptor A1 [9]): 473 nM
SMILES: O[C@@H]1[C@@H](COc2ccccc2Cl)OC(n2cnc3c(NC4CCOC4)ncnc32)[C@@H]1O (stereo partly specified)

Ki (Adenosine receptor A1 [2]): 1340 nM
SMILES: Cn1ccnc1SC[C@H]1OC(n2cnc3c(NC4CCCC4)ncnc32)[C@H](O)[C@@H]1O (stereo partly specified)

Ki (Adenosine receptor A1 [10]): 1940 nM
SMILES: O[C@@H]1[C@@H](CSc2nc3ccc(Cl)cc3o2)OC(n2cnc3c(NC4CCOC4)ncnc32)[C@@H]1O (stereo partly specified)

Ki (Adenosine receptor A1 [11]): 400 nM
SMILES: O[C@@H]1[C@@H](CSc2nc3ccccc3s2)OC(n2cnc3c(NC4CCOC4)ncnc32)[C@@H]1O (stereo partly specified)

Ki (Adenosine receptor A1 [12]): 158 nM
SMILES: O[C@@H]1[C@@H](CSc2nccs2)OC(n2cnc3c(NC4CCOC4)ncnc32)[C@@H]1O (stereo partly specified)

Ki (Adenosine receptor A1 [13]): 6250 nM
SMILES: O[C@@H]1[C@@H](CSc2ccccc2C(F)(F)F)OC(n2cnc3c(NC4CCOC4)ncnc32)[C@@H]1O (stereo partly specified)

Ki (Adenosine receptor A1 [14]): 604 nM
SMILES: O[C@@H]1[C@@H](COc2cccc(F)c2)OC(n2cnc3c(NC4CCOC4)ncnc32)[C@@H]1O (stereo partly specified)

Ki (Adenosine receptor A1 [2]): 165 nM
SMILES: O[C@@H]1[C@@H](COCc2ccccc2)OC(n2cnc3c(NC4CCOC4)ncnc32)[C@@H]1O (stereo partly specified)

Ki (Adenosine receptor A1 [15]): 338 nM
SMILES: O[C@@H]1[C@@H](CSc2ccccc2Cl)OC(n2cnc3c(NC4CCOC4)ncnc32)[C@@H]1O (stereo partly specified)

Ki (Adenosine receptor A1 [16]): 1570 nM
SMILES: O[C@@H]1[C@@H](CSc2cccc(F)c2)OC(n2cnc3c(NC4CCOC4)ncnc32)[C@@H]1O (stereo partly specified)

Ki (Adenosine receptor A1 [17]): 503 nM
SMILES: Cc1ccccc1OC[C@H]1OC(n2cnc3c(NC4CCOC4)ncnc32)[C@H](O)[C@@H]1O (stereo partly specified)

Ki (Adenosine receptor A1 [2]): > 5000 nM
SMILES: Cc1csc(SC[C@H]2OC(n3cnc4c(NC5CCOC5)ncnc43)[C@H](O)[C@@H]2O)n1 (stereo partly specified)

Ki (Adenosine receptor A1 [18]): 1670 nM
SMILES: COc1ccc2nc(SC[C@H]3OC(n4cnc5c(NC6CCCC6)ncnc54)[C@H](O)[C@@H]3O)sc2c1 (stereo partly specified)

Ki (Adenosine receptor A1 [19]): 287 nM
SMILES: O[C@@H]1[C@@H](CSc2ccccc2F)OC(n2cnc3c(NC4CCCC4)ncnc32)[C@@H]1O (stereo partly specified)

Ki (Adenosine receptor A1 [20]): 894 nM
SMILES: O[C@@H]1[C@@H](CSc2ccccn2)OC(n2cnc3c(NC4CCOC4)ncnc32)[C@@H]1O (stereo partly specified)

Ki (Adenosine receptor A1 [21]): 166 nM
SMILES: O[C@@H]1[C@@H](CSc2nccs2)OC(n2cnc3c(NC4CCCC4)ncnc32)[C@@H]1O (stereo partly specified)

Ki (Adenosine receptor A1 [22]): 4190 nM
SMILES: Cn1ccnc1SC[C@H]1OC(n2cnc3c(NC4CCOC4)ncnc32)[C@H](O)[C@@H]1O (stereo partly specified)

Ki (Adenosine receptor A1 [23]): 5850 nM
SMILES: Cc1cccc(C)c1SC[C@H]1OC(n2cnc3c(NC4CCOC4)ncnc32)[C@H](O)[C@@H]1O (stereo partly specified)

Ki (Adenosine receptor A1 [24]): 5500 nM
Ki (Adenosine receptor A1 [2]): 494 nM
SMILES: O[C@@H]1[C@H](O)[C@@H](CSc2ccc(F)cc2F)O[C@H]1n1cnc2c(NC3CCOC3)ncnc21 (stereo partly specified)

Ki (Adenosine receptor A1 [25]): 7290 nM
SMILES: Cc1cccc(Cl)c1SC[C@H]1OC(n2cnc3c(NC4CCOC4)ncnc32)[C@H](O)[C@@H]1O (stereo partly specified)

Ki (Adenosine receptor A1 [26]): 354 nM
SMILES: COc1ccc2sc(SC[C@H]3OC(n4cnc5c(NC6CCCC6)ncnc54)[C@H](O)[C@@H]3O)nc2c1 (stereo partly specified)
